Test results taken from US20230312605A1, “PYRROLO[2,1-F][1,2,4]TRIAZINES AND PREPARATION AND USES THEREOF” (BioSplice Therapeutics, Inc., priority 2021, published 2023).

Target: recombinant DYRK1A kinase (Homo sapiens (Human), UniProt Q13627)
Test: DYRK1A kinase assay (Ser/Thr 18 peptide Z-lyte FRET assay)
Assay type: biochemical
Conditions: recombinant DYRK1A 0.25 µg/mL, ATP 15 µM, Ser/Thr peptide 18 4 µM, one hour at room temperature; table head prints EC50, method says IC50
Protocol: Representative compounds were screened using the assay procedure for DYRK1A kinase activity as described below.
Each compound was dissolved in DMSO as a 10 mM stock and used to prepare compound source plates. Serial dilution (1:3, 11-point dose-response curves from 10 µM to 0.00016 µM) and compound transfer was performed using the ECHO 550 (Labcyte, Sunnyvale, CA) into 1536-well black-walled round bottom plates (Corning).
The DYRK1A kinase assay was run using the Ser/Thr 18 peptide Z-lyte assay kit according to manufacturer’s instructions (Life Technologies- a Division of Thermo-Fisher). This is a non-radioactive assay using fluorescence resonance energy transfer (FRET) between coumarin and fluorescein to detect kinase activity which is represented as a ratio of coumarin emission/fluorescein emission.
Briefly, recombinant DYRK1A kinase, ATP and Ser/Thr peptide 18 were prepared in 1X Kinase buffer to final concentrations of 0.25 µg/mL, 15 µM, and 4 µM respectively. The mixture was allowed to incubate with the representative compounds for one hour at room temperature. All reactions were performed in duplicate. Unphosphorylated (“0% Control”) and phosphorylated (“100% control”) forms of Ser/Thr 18 served as control reactions. Additionally, an 11-point dose-response curve of Staurosporine (1uM top) was run to serve as a positive compound control.
After incubation, Development Reagent A was diluted in Development Buffer then added to the reaction and allowed to further incubate for one hour at room temperature. The plate was read at Ex 400 Em 455 to detect the coumarin signal and Ex 400 Em 520 to measure the signal (EnVision Multilabel Plate Reader, PerkinElmer).
The Emission ratio (Em) was calculated as a ratio of the coumarin (C) emission signal (at 445 nm)/Fluorescein (F) emission signal (at 520 nm). The percent phosphorylation was then calculated using the following formula: [1 — ((Em ratio X F100%)—C100%)/ ((C0%—C100%) + (Em ratio X (F100% - F0%)))]. Dose-response curves were generated, and inhibitory concentration (IC50) values were calculated using non-linear regression curve fit in the Dotmatics’ Studies Software (Bishops Stortford, UK).

| Compound | EC50 |
| --- | --- |
| FC1(F)CC(Nc2ncc3c(-c4cnc5nccn5c4)ccn3n2)C1 [Compound 236, N-(3,3-Difluorocyclobutyl)-5-(imidazo[1,2-a]pyrimidin-6-yl)pyrrolo[2,1-f] [1,2,4]triazin-2-amine] | 9 nM |
| CC1(C)CC(Nc2ncc3c(-c4cnc5nccn5c4)ccn3n2)C1 [Compound 237, N-(3,3-Dimethylcyclobutyl)-5-(imidazo[1,2-a]pyrimidin-6-yl)pyrrolo[2,1-f] [1,2,4]triazin-2-amine] | 3 nM |
| CO[C@H]1C[C@@H](Nc2ncc3c(-c4cnc5nccn5c4)ccn3n2)C1 [Compound 239, 5-(Imidazo[1,2-a]pyrimidin-6-yl)-N-(cis-3-methoxycyclobutyl)pyrrolo[2,1-f] [1,2,4]triazin-2-amine] | 6 nM |
| CO[C@H]1C[C@H](Nc2ncc3c(-c4cnc5nccn5c4)ccn3n2)C1 [Compound 240, 5-(Imidazo[1,2-a]pyrimidin-6-yl)-N-(trans-3-methoxycyclobutyl)pyrrolo [2,1-f] [1,2,4]triazin-2-amine] | 14 nM |
| CCO[C@H]1C[C@@H](Nc2ncc3c(-c4cnc5nccn5c4)ccn3n2)C1 [Compound 242, N-(cis-3-Ethoxycyclobutyl)-5-(imidazo[1,2-a]pyrimidin-6-yl)pyrrolo[2,1-f] [1,2,4]triazin-2-amine] | 5 nM |
| COCCO[C@H]1C[C@@H](Nc2ncc3c(-c4cnc5nccn5c4)ccn3n2)C1 [Compound 244, 5-(Imidazo[1,2-a]pyrimidin-6-yl)-N-(cis-3-(2-methoxyethoxy)cyclobutyl) pyrrolo[2,1-f] [1,2,4]triazin-2-amine] | 5 nM |
| C[C@]1(O)CC[C@@H](Nc2ncc3c(-c4cnc5nccn5c4)ccn3n2)CC1 [Compound 258, (1s,4s)-4-((5-(Imidazo [1,2-a]pyrimidin-6-yl)pyrrolo[2,1-f] [1,2,4]triazin-2-yl)amino)-1-methylcyclohexan-1-ol] | 10 nM |
| CO[C@H]1CC[C@H](Nc2ncc3c(-c4cnc5nccn5c4)ccn3n2)CC1 [Compound 260, 5-(Imidazo[1,2-a]pyrimidin-6-yl)-N-(trans-4-methoxycyclohexyl)pyrrolo [2,1-f] [1,2,4]triazin-2-amine] | 9 nM |
| CCO[C@H]1CC[C@@H](Nc2ncc3c(-c4cnc5nccn5c4)ccn3n2)CC1 [Compound 263, N-(cis-4-Ethoxycyclohexyl)-5-(imidazo[1,2-a]pyrimidin-6-yl)pyrrolo[2,1-f][1,2,4]triazin-2-amine] | 6 nM |
| COCCO[C@H]1CC[C@@H](Nc2ncc3c(-c4cnc5nccn5c4)ccn3n2)CC1 [Compound 265, 5-(Imidazo[1,2-a]pyrimidin-6-yl)-N-(cis-4-(2-methoxyethoxy)cyclohexyl) pyrrolo[2,1-f] [1,2,4]triazin-2-amine] | 6 nM |
| CN1CCC(Nc2ncc3c(-c4cnc5nccn5c4)ccn3n2)CC1 [Compound 279, 5-(Imidazo[1,2-a]pyrimidin-6-yl)-N-(1-methylpiperidin-4-yl)pyrrolo[2,1-f][1,2,4]triazin-2-amine] | 49 nM |
| c1cn2cc(-c3ccn4nc(NC5CCOCC5)ncc34)cnc2n1 [Compound 280, 5-(imidazo[1,2-a]pyrimidin-6-yl)-N-(tetrahydro-2H-pyran-4-yl)pyrrolo[2,1-f][1,2,4]triazin-2-amine] | 15 nM |
| CN1CC2(CC(Nc3ncc4c(-c5cnc6nccn6c5)ccn4n3)C2)C1 [Compound 283, 5-(Imidazo[1,2-a]pyrimidin-6-yl)-N-(2-methyl-2-azaspiro[3.3]heptan-6-yl)pyrrolo[2,1-f][1,2,4]triazin-2-amine] | 20 nM |
| CC(C)(F)CNc1ncc2c(-c3cnc4ncc(Cl)n4c3)ccn2n1 [Compound 287, 5-(3-Chloroimidazo[1,2-a]pyrimidin-6-yl)-N-(2-fluoro-2-methylpropyl) pyrrolo[2,1-f] [1,2,4]triazin-2-amine] | 170 nM |
| Cc1cnc2ncc(-c3ccn4nc(NCC(C)(C)F)ncc34)cn12 [Compound 358, N-(2-Fluoro-2-methylpropyl)-5-(3-methylimidazo[1,2-a]pyrimidin-6-yl) pyrrolo[2,1-f] [1,2,4]triazin-2-amine] | 25 nM |
| Cc1cnc2ncc(-c3ccn4nc(NC5CCC(F)(F)CC5)ncc34)cn12 [Compound 398, N-(4,4-Difluorocyclohexyl)-5-(3-methylimidazo[1,2-a]pyrimidin-6-yl) pyrrolo[2,1-f] [1,2,4]triazin-2-amine] | 12 nM |
| CCc1cnc2ncc(-c3ccn4nc(NCC(C)(C)F)ncc34)cn12 [Compound 429, 5-(3-Ethylimidazo[1,2-a]pyrimidin-6-yl)-N-(2-fluoro-2-methylpropyl) pyrrolo[2,1-f] [1,2,4]triazin-2-amine] | 654 nM |
| Cc1nc2c(F)cc(-c3ccn4nc(NCC(C)(C)F)ncc34)cc2n1C(C)C [Compound 500] | 44 nM |
| Cc1nc2ncc(-c3ccn4nc(NCC(C)(C)F)ncc34)cc2n1CC(F)F [Compound 642, 5-(1-(2,2-difluoroethyl)-2-methyl-1H-imidazo[4,5-b]pyridin-6-yl)-N-(2-fluoro-2-methylpropyl)pyrrolo[2,1-f][1,2,4]triazin-2-amine] | 4 nM |
| Cc1nc2ncc(-c3ccn4nc(NC5CCC(F)(F)CC5)ncc34)cc2n1CC(F)F [Compound 682, N-(4,4-Difluorocyclohexyl)-5-(1-(2,2-difluoroethyl)-2-methyl-1H-imidazo[4,5-b]pyridin-6-yl)pyrrolo[2,1-f] [1,2,4]triazin-2-amine] | 4 nM |
| Cc1nc2ncc(-c3ccn4nc(N[C@H]5CC[C@@H](O)CC5)ncc34)cc2n1CC(F)F [Compound 683, cis-4-((5-(1-(2,2-Difluoroethyl)-2-methyl-1H-imidazo[4,5-b]pyridin-6-yl)pyrrolo[2,1-f][1,2,4]triazin-2-yl)amino)cyclohexan-1-ol] | 6 nM |
| Cc1nc2ncc(-c3ccn4nc(N[C@H]5CC[C@@](C)(O)CC5)ncc34)cc2n1CC(F)F [Compound 684, cis-4-((5-(1-(2,2-Difluoroethyl)-2-methyl-1H-imidazo[4,5-b]pyridin-6-yl)pyrrolo[2,1-f][1,2,4]triazin-2-yl)amino)-1-methylcyclohexan-1-ol] | 4 nM |
| CO[C@H]1CC[C@@H](Nc2ncc3c(-c4cnc5nc(C)n(CC(F)F)c5c4)ccn3n2)CC1 [Compound 685, 5-(1-(2,2-Difluoroethyl)-2-methyl-1H-imidazo[4,5-b]pyridin-6-yl)-N-(cis-4-methoxycyclohexyl)pyrrolo[2,1-f] [1,2,4]triazin-2-amine] | 3 nM |
| CO[C@H]1CC[C@H](Nc2ncc3c(-c4cnc5nc(C)n(CC(F)F)c5c4)ccn3n2)CC1 [Compound 686, 5-(1-(2,2-Difluoroethyl)-2-methyl-1H-imidazo[4,5-b]pyridin-6-yl)-N-(trans-4-methoxycyclohexyl)pyrrolo[2,1-f][1,2,4]triazin-2-amine] | 5 nM |
| Cc1nc2ncc(-c3ccn4nc(N[C@H]5CC[C@@H](OC(F)F)CC5)ncc34)cc2n1CC(F)F [Compound 687] | 2 nM |
| COCCO[C@H]1CC[C@@H](Nc2ncc3c(-c4cnc5nc(C)n(CC(F)F)c5c4)ccn3n2)CC1 [Compound 691, 5-(1-(2,2-Difluoroethyl)-2-methyl-1H-imidazo[4,5-b]pyridin-6-yl)-N-(cis-4-(2-methoxyethoxy)cyclohexyl)pyrrolo[2,1-f][1,2,4]triazin-2-amine] | 3 nM |
| COCCO[C@H]1CC[C@H](Nc2ncc3c(-c4cnc5nc(C)n(CC(F)F)c5c4)ccn3n2)CC1 [Compound 692, 5-(1-(2,2-Difluoroethyl)-2-methyl-1H-imidazo[4,5-b]pyridin-6-yl)-N-(trans-4-(2-methoxyethoxy)cyclohexyl)pyrrolo[2,1-f][1,2,4]triazin-2-amine] | 28 nM |
| Cc1nc2ncc(-c3ccn4nc(NC5CCOCC5)ncc34)cc2n1CC(F)F [Compound 706, 5-(1-(2,2-Difluoroethyl)-2-methyl-1H-imidazo[4,5-b]pyridin-6-yl)-N-(tetrahydro-2H-pyran-4-yl)pyrrolo[2,1-f][1,2,4]triazin-2-amine] | 5 nM |
| Cc1nc2ncc(-c3ccn4nc(NCC(C)(C)F)ncc34)cc2n1C1CC(F)(F)C1 [Compound 713, 5-(1-(3,3-Difluorocyclobutyl)-2-methyl-1H-imidazo[4,5-b]pyridin-6-yl)-N-(2-fluoro-2-methylpropyl)pyrrolo[2,1-f][1,2,4]triazin-2-amine] | 11 nM |
| Cc1nc2ccc(-c3ccn4nc(NCC(C)(C)F)ncc34)nc2n1C [Compound 855, 5-(2,3-Dimethyl-3H-imidazo[4,5-b]pyridin-5-yl)-N-(2-fluoro-2-methylpropyl)pyrrolo[2,1-f][1,2,4]triazin-2-amine] | 43 nM |
